Consider two molecules from PMC8579695, “The Stringent Response Inhibits 70S Ribosome Formation in Staphylococcus aureus by Impeding GTPase-Ribosome Interactions” (mBio, 2021).

Read-outs that look alike come from different tables or passages of the source.

Test [1] addresses Era (Staphylococcus aureus, UniProt Q2FGF6). Put plainly: DRaCALA binding of 32P-labeled nucleotides to 6×His-tagged Era. The note with it: for Bmax, Era: Bmax values indicate the fraction bound. The protocol: The RA-GTPases RsgA, Era, RbgA, and HflX can bind to the guanosine nucleotides GTP, GDP, ppGpp, and pppGpp. Our previous work observed higher binding affinities for ppGpp over GTP, pointing toward a difference in binding between 5′ di- or triphosphate nucleotides ([27]). […] Furthermore, these previous experiments were performed using recombinant proteins fused to large MBP tags, which could impact binding affinity determination. To examine the nucleotide binding affinities of these RA-GTPases for GDP in comparison to ppGpp, pppGpp, and GTP, and in the absence of a large tag, we used a differential radial capillary action of ligand assay (DRaCALA) with recombinant RsgA, RbgA, Era, and HflX fused to a smaller 6× His tag (Fig. 1B; see also Fig. S2A to C in the supplemental material) ([36]). In each case, the affinities of 5′ diphosphate-containing GDP and ppGpp were similar in the low μM range and were 2- to 6-fold higher than the affinities of either GTP or pppGpp (Table 1).
Supplementary file : FIG S2 Examination of the binding of GDP, ppGpp, GTP, and pppGpp to RA-GTPases by DRaCALA. (A to C) Determination of binding affinities and Kd values for ^32P-labeled nucleotides to purified recombinant 6×His-tagged RsgA (A), Era (B), and HflX (C). Kd values were determined from the binding curves as previously described ([36]). (D to F) DRaCALA binding assay of recombinant RsgA (D), Era (E), and HflX (F) binding to ^32P-labeled GTP, ppGpp, and pppGpp in the presence or absence of 100 μM cold competitors (GTP, GDP, ppGpp, pppGpp, and ATP). All experiments were carried out in triplicate, with error bars representing standard deviations. Download FIG S2, TIF file, 0.9 MB.
The synthesis of (p)ppGpp and differential radial capillary action of ligand assay (DRaCALA) binding and competition assays were performed as described previously ([27]), using recombinant, 6×His-tagged protein at the concentrations specified in the figure legends.

The test system of test [2] is RA-GTPases RsgA, RbgA, Era, and HflX. Put plainly: DRaCALA binding and competition assays across the four RA-GTPases. The note with it: 100 μM cold competitor. On the set-up: species or system Staphylococcus aureus. An excerpt: FIG 1 Nucleotide binding characteristics of RA-GTPases. (A) Schematic representation of the domain structure of Era, RsgA, RbgA, and HflX from S. aureus. The conserved GTPase domain (G domain) is colored in green, and accessory domains are shown. (B) Determination of binding affinities and Kd values for ^32P-labeled GTP, GDP, ppGpp, and pppGpp with purified recombinant 6×His-tagged RbgA using DRaCALA, as previously described ([36]). Each point is the mean average of at least three technical replicates, and error bars indicate standard deviations. (C) Binding assay (DRaCALA) of recombinant RbgA binding to ^32P-labeled GTP, ppGpp, and pppGpp in the presence of an excess of cold competitor (GTP, GDP, ppGpp, pppGpp, or ATP). All experiments were carried out in triplicate, with error bars representing standard deviations. […]
Supplementary file : FIG S2 Examination of the binding of GDP, ppGpp, GTP, and pppGpp to RA-GTPases by DRaCALA. […] Kd values were determined from the binding curves as previously described ([36]). […]
Structural data places (p)ppGpp within the GTP-binding site of the RA-GTPase RbgA ([6]), indicating a competitive mode of inhibition. […] Based on our measured affinities (Table 1), we speculate that both GDP and ppGpp will outcompete other nucleotides for occupancy of the binding site. […]

Chain of Era (Q2FGF6 whole entry, the tested form may be a part): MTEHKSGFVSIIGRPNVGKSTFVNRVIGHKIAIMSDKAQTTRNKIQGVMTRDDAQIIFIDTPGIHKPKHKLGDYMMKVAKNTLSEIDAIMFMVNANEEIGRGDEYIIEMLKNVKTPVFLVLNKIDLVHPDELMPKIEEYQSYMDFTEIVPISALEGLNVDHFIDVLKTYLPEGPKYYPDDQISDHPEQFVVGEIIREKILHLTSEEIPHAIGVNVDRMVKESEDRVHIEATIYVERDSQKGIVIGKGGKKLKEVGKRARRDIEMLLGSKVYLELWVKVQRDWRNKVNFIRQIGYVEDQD

On to `Nc1nc2c(ncn2[C@@H]2O[C@H](COP(=O)(O)OP(=O)(O)OP(=O)(O)O)[C@@H](OP(=O)(O)OP(=O)(O)O)[C@H]2O)c(=O)[nH]1` [pppGpp], for which, in test [1], the affinity, expressed as Kd, was 13.9 ± 4.7 µM. For the same molecule, in test [1] (mean ± SEM), the “Bmax, Era” value was determined as 0.2 ± 0.0.

`Nc1nc2c(ncn2[C@@H]2O[C@H](COP(=O)(O)OP(=O)(O)O)[C@@H](OP(=O)(O)OP(=O)(O)O)[C@H]2O)c(=O)[nH]1` [ppGpp]: the Kd (in general, the free concentration of one partner at which half of the binding sites on the other are occupied at equilibrium, for simple one-to-one binding) in test [1] (mean ± SEM, 32P-labeled nucleotide, 6×His-tagged protein, read-out: Kd, Era) was 4.2 ± 0.6 µM. Besides, the “Bmax, Era” value in test [1] (mean ± SEM) stood at 0.4 ± 0.0. In test [2], the “competition of cold unlabeled nucleotide with 32P-labeled GTP, ppGpp, pppGpp” value is recorded as “competing more effectively”.
